Read-outs that look alike come from different tables or passages of the source.
Key:
[1] = Plasma free fraction (fp) by ultrafiltration; format: in vitro ADME, rhesus monkey; conditions: monkey, plasma (separated from spiked whole blood)
Description: The unbound fraction of [^18F]SDM-16 in plasma (fp) of rhesus monkey was measured in triplicate using the ultrafiltration method. Briefly, [^18F]SDM-16 solution was added to 3 mL of whole blood. After incubation at ambient temperature for 5 min, the blood sample was centrifuged at 3900 rpm for 5 min. A sample of the supernatant plasma (0.3 mL) was loaded onto the reservoir of a Centrifree® Ultrafiltration device (Merck Millipore Ltd. Tullagreen, Carrigtwohill, Co. Cork, IRELAND) in triplicate and centrifuged at 1228 g for 20 min. The fp value was calculated as the ratio of radioactivity in the filtrate to that in the plasma.

[2] = Measurement of lipophilicity (octanol / PBS pH 7.4); format: physicochemical; conditions: octanol/PBS pH 7.4
Description: The logP of [^18F]SDM-16 was determined by a method modified from previously published procedures. Briefly, an aliquot of […] (10 µCi) of the radioligand was added to a 2-mL microtube containing 0.8 mL of octanol and 0.8 mL of 1 × phosphate buffered saline (1 × PBS, pH 7.4). The mixture was vortexed for 30 s and then centrifuged at 2000 g for 2 min. A subsample of the octanol (0.1 mL) and 1 × PBS (0.5 mL) layers was evaluated with a gamma counter. The major portion of the octanol layer (0.5 mL) was diluted with another 0.3 mL of octanol, mixed with a fresh portion of 0.8 mL of PBS, vortexed, centrifuged, and analyzed as described above. This process was repeated until consistent log P values were obtained, with five consecutive equilibration procedures being performed for each logP measurement. Four separate measurements were performed for [^18F]SDM-16 on different days.

SV2A [3] = assay: Brain PET imaging with 1TC kinetic modeling
Description: (§1) A total of 10 PET imaging experiments with [^18F]SDM-16 were performed in rhesus monkeys (Macaca mulatta) according to a protocol approved by the Yale University Institutional Animal Care and Use Committee (IACUC). Four monkeys were studied. […] Body temperature was maintained by a water-jacket heating pad. The animal was attached to a physiological monitor, and vital signs (heart rate, blood pressure, respirations, SPO2, EKG, ETCO2, and body temperature) were continuously monitored. A venous line was inserted in one limb for administration of radiotracer, displacement, and blocking drugs. A catheter was placed in the femoral artery in the other limb for blood sampling. Dynamic PET brain scans were performed on a Focus 220 system (Siemens Medical Solutions, Knoxville, TN, USA) with a reconstructed image resolution of approximately 1.5 mm. After a 9-min transmission scan, the radioligand was injected i.v. over 3 min. by an infusion pump. Dynamic PET scans were performed for 3 h (baseline and blocking scans) or 4 h (displacement scan).
(§2) PET images were reconstructed with built-in corrections for attenuation, normalization, scatter, randoms, and deadtime. PET brain images were registered to the animal’s MR image, which was subsequently registered to a brain atlas to define the regions of interest. Dynamic images were reconstructed using a Fourier rebinning and filtered back projection algorithm. A rhesus monkey brain atlas was used for generation of regions of interest (ROIs) and time − activity curves (TACs) for the following ROIs: amygdala, brain stem, caudate nucleus, centrum semiovale (CS), cerebellum, cingulate cortex, frontal cortex, globus pallidus, hippocampus, insula, nucleus accumbens, occipital cortex, pons, putamen, substantia nigra, temporal cortex, and thalamus.
(§3) Volume of distribution (VT, mL·cm^−3) values and the first-order kinetic rate constants of tracer (K1) were derived through 1-tissue (1T) compartment kinetic modeling with the metabolite-corrected arterial plasma input function, which was calculated as the product of the fitted total plasma curve and the parent radiotracer fraction curve. Nondisplaceable volume of distribution (VND) and SV2A occupancy by LEV was calculated using the Lassen plot [32]. Nondisplaceable binding potential (BPND) values were calculated from VT values using CS as reference region, or the VND derived from the blocking study, i.e., BPND = (VT, ROI − VT, CS)/ VT, CS or BPND = (VT/VND) -1.

[4] = Brain PET imaging with 1TC kinetic modeling; conditions: rhesus monkey, in vivo
Description: as §1, §2, §3

[5] = Plasma radiometabolite analysis during PET scans; format: in vivo, rhesus monkeys; conditions: 30 min p.i.
Description: Arterial blood samples were collected during the PET scans to measure the radioactivity in plasma for generation of the metabolite-corrected arterial plasma input function. Plasma radiometabolite analysis was performed using the column-switching method, following a published protocol. Briefly, arterial blood samples were collected at 3-, 8-, 15-, 30-, 60-, 90-, 120-, and 180-min post-injection (p. i.), treated with urea (8 M), filtered, and injected onto a self-packed short column (4.6 × 19 mm) eluting with 1% MeCN in water at a flow rate of 2 mL/min. The sample was then back flushed onto a Gemini-NX column (5 μm, 4.6 mm × 250 mm) eluting with 40% MeCN/60% 0.1 M ammonium formate (pH 6.4) at a flow rate of 1.2 mL/min. The eluent was fraction-collected using an automated spectrum chromatography CF-1 fraction collector. Activity in the whole blood, plasma, filtrated plasma-urea mix, filters, and HPLC fractions were counted with automatic gamma well-counter (Wizard 2, PerkinElmer). The sample recovery rate, extraction efficiency, and HPLC fraction recovery were monitored. The unmetabolized [^18F]SDM-16 parent fraction was determined as the ratio of the sum of radioactivity in fractions containing the parent compound to the total amount of radioactivity collected and fitted with inverted Gamma4 approaches.
[^18F]SDM-16 had higher metabolite-corrected plasma SUV than the other SV2A radiotracers, indicating slower plasma clearance and higher metabolic stability (Fig. 2a). Whole-blood and plasma-input functions were highly consistent between the two animals, with a stable plasma to whole-blood ratio of 0.93 ± 0.13 over the entire 180-min acquisition period (Fig. S1).

SV2A [6] = conditions: cited from earlier work; for VT (baseline): 1TC
[7] = female rhesus macaques, 1-h voiding model; cited from earlier work
[8] = Free base fraction in plasma by modified Henderson-Hasselbalch equation (Eq. 1); conditions: Eq. 1, plasma pH 7.4
SV2A [9] = target: SV2A (Macaca mulatta, UniProt H9EQH8); conditions: previously determined; cited from earlier work
Chain of SV2A (Macaca mulatta, UniProt H9EQH8) (H9EQH8 1-742): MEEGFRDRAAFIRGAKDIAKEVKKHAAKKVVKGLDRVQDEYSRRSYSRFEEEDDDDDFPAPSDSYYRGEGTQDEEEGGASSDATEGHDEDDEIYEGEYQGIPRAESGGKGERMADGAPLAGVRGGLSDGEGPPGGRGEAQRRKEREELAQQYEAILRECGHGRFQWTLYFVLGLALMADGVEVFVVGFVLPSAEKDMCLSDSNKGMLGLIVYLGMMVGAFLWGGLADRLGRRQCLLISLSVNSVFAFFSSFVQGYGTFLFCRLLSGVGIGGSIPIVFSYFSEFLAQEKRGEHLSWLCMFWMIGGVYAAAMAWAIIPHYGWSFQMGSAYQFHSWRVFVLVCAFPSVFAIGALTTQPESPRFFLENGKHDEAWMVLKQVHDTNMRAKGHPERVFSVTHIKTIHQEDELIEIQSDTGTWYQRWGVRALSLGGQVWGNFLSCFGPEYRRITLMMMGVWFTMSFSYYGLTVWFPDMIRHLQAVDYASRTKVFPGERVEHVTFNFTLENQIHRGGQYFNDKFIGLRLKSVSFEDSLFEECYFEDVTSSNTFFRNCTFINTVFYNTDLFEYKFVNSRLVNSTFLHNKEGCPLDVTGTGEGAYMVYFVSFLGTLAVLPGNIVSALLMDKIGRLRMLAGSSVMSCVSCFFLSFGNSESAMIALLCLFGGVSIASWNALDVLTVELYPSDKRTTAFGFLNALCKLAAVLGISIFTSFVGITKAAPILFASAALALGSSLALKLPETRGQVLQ

[10] = set-up: method as in PMID 33826008; conditions: 30 min p.i.; cited from earlier work
[11] = estimated from human; cited from earlier work
[12] = conjugate acid; cited from earlier work

In the case of `Cc1cnccc1CN1C[C@@H](c2cc(F)cc([18F])c2)CC1=O` [[^18F]SynVesT-1], the fraction unbound at 5 min [1] is reported as 0.43, the logP [2] is reported as 2.32 and the “BPND, VND method” value (SV2A [3]; Amygdala) is reported as 4.24 ± 4.05. For the same compound, the “BPND, VT(CS) method” value (SV2A [3]; Amygdala) was 1.9 ± 1.1, the K1 (SV2A [3]; Amygdala) was 0.56 ± 0.36 mL/cm^3 per min and the “BPND, VND method” value (SV2A [3]; Anterior cingulate) was 8.44 ± 4.27. The “BPND, VT(CS) method” value (SV2A [3]; Anterior cingulate) was 4.1 ± 0.7, the K1 (SV2A [3]; Anterior cingulate) was 1.05 ± 0.66 mL/cm^3 per min and the “BPND, VND method” value (SV2A [3]; Brainstem) was 2.30 ± 0.99. The “BPND, VT(CS) method” value (SV2A [3]; Brainstem) was 0.8 ± 0.0, the K1 (SV2A [3]; Brainstem) was 1.37 ± 1.26 mL/cm^3 per min and the “BPND, VND method” value (SV2A [3]; Caudate) was 6.23 ± 2.96. For the same compound, the “BPND, VT(CS) method” value (SV2A [3]; Caudate) was 3.0 ± 0.4, the K1 (SV2A [3]; Caudate) was 0.95 ± 0.49 mL/cm^3 per min and the “BPND, VND method” value (SV2A [3]; Cerebellum) was 4.74 ± 1.81. The “BPND, VT(CS) method” value (SV2A [3]; Cerebellum) was 2.2 ± 0.2, the K1 (SV2A [3]; Cerebellum) was 0.88 ± 0.41 mL/cm^3 per min and the “BPND, VND method” value (SV2A [3]; Cingulate cortex) was 9.04 ± 3.59. For the same compound, the “BPND, VT(CS) method” value (SV2A [3]; Cingulate cortex) was 4.5 ± 0.4, the “BPND, VND method” value (SV2A [3]; Frontal cortex) was 8.64 ± 3.59 and the “BPND, VT(CS) method” value (SV2A [3]; Frontal cortex) was 4.3 ± 0.6. For the same compound, the K1 (SV2A [3]; Frontal cortex) was 0.79 ± 0.39 mL/cm^3 per min, the “BPND, VND method” value (SV2A [3]; Globus pallidus) was 3.42 ± 1.90 and the “BPND, VT(CS) method” value (SV2A [3]; Globus pallidus) was 1.4 ± 0.3. The K1 (SV2A [3]; Globus pallidus) was 0.73 ± 0.49 mL/cm^3 per min, the “in vivo Kd ratio, Kd(tracer)/Kd([^18F]SDM-16)” value (SV2A [3]; Guo plot of baseline VT) was 0.41 and the “BPND, VND method” value (SV2A [3]; Hippocampus) was 5.19 ± 2.56. For the same compound, the “BPND, VT(CS) method” value (SV2A [3]; Hippocampus) was 2.4 ± 0.4, the K1 (SV2A [3]; Hippocampus) was 0.68 ± 0.34 mL/cm^3 per min and the “BPND, VND method” value (SV2A [3]; Insular cortex) was 8.41 ± 3.27. The “BPND, VT(CS) method” value (SV2A [3]; Insular cortex) was 4.2 ± 0.3, the K1 (SV2A [3]; Insular cortex) was 0.93 ± 0.48 mL/cm^3 per min and the K1 (SV2A [3]; Mean ± SD over brain regions) was 0.91 ± 0.28 mL/cm^3 per min. The “BPND, VND method” value (SV2A [3]; Nucleus accumbens) was 8.41 ± 3.54, the “BPND, VT(CS) method” value (SV2A [3]; Nucleus accumbens) was 4.1 ± 0.4 and the K1 (SV2A [3]; Nucleus accumbens) was 0.99 ± 0.63 mL/cm^3 per min. For the same compound, the “BPND, VND method” value (SV2A [3]; Occipital cortex) was 7.61 ± 2.51, the “BPND, VT(CS) method” value (SV2A [3]; Occipital cortex) was 3.9 ± 0.2 and the K1 (SV2A [3]; Occipital cortex) was 0.88 ± 0.47 mL/cm^3 per min. For the same compound, the “BPND, VND method” value (SV2A [3]; Putamen) was 6.41 ± 2.96, the “BPND, VT(CS) method” value (SV2A [3]; Putamen) was 2.9 ± 0.4 and the K1 (SV2A [3]; Putamen) was 1.25 ± 0.82 mL/cm^3 per min. For the same compound, the “BPND, VND method” value (SV2A [3]; Temporal cortex) was 7.36 ± 2.64, the “BPND, VT(CS) method” value (SV2A [3]; Temporal cortex) was 3.7 ± 0.3 and the K1 (SV2A [3]; Temporal cortex) was 0.74 ± 0.34 mL/cm^3 per min. For the same compound, the “BPND, VND method” value (SV2A [3]; Thalamus) was 6.59 ± 3.72, the “BPND, VT(CS) method” value (SV2A [3]; Thalamus) was 2.9 ± 0.7 and the K1 (SV2A [3]; Thalamus) was 0.93 ± 0.71 mL/cm^3 per min. For the same compound, the fraction unbound [4] was 0.101, the “parent fraction in plasma” value [5] was 42 ± 13% and the “VT (baseline)” value (SV2A [6]; Amygdala) was 24.8 ± 8.5 mL/cm^3. For the same compound, the “VT (baseline)” value (SV2A [6]; Brainstem) was 16.3 ± 3.6 mL/cm^3, the “VT (baseline)” value (SV2A [6]; Caudate) was 35.0 ± 6.3 mL/cm^3 and the “VT (baseline)” value (SV2A [6]; Centrum semiovale) was 8.9 ± 2.0 mL/cm^3. For the same compound, the “VT (baseline)” value (SV2A [6]; Cerebellum) was 28.9 ± 6.8 mL/cm^3, the “VT (baseline)” value (SV2A [6]; Cingulate cortex) was 48.5 ± 8.9 mL/cm^3 and the “VT (baseline)” value (SV2A [6]; Frontal cortex) was 47.1 ± 9.1 mL/cm^3. The “VT (baseline)” value (SV2A [6]; Globus pallidus) was 21.6 ± 4.2 mL/cm^3, the “VT (baseline)” value (SV2A [6]; Hippocampus) was 30.1 ± 5.6 mL/cm^3 and the “VT (baseline)” value (SV2A [6]; Insular cortex) was 46.1 ± 9.2 mL/cm^3. The “VT (baseline)” value (SV2A [6]; Nucleus accumbens) was 45.2 ± 7.9 mL/cm^3, the “VT (baseline)” value (SV2A [6]; Occipital cortex) was 43.7 ± 10.7 mL/cm^3 and the “VT (baseline)” value (SV2A [6]; Putamen) was 34.6 ± 4.9 mL/cm^3. For the same compound, the “VT (baseline)” value (SV2A [6]; Temporal cortex) was 42.2 ± 10.0 mL/cm^3, the “VT (baseline)” value (SV2A [6]; Thalamus) was 34.2 ± 3.0 mL/cm^3 and the “effective dose (ED)” value [7] was 20 µSv/MBq. The “fraction present in plasma as free base” value [8] was 81% and the VND (SV2A [9]) was 4.96 mL/cm^3.
In the case of `O=C1C[C@H](c2cc(F)c(F)c(F)c2)CN1Cc1ccncc1[18F]` [[^18F]UCB-H], the fraction unbound at 5 min [1] is listed as 0.43, the logP [2] is listed as 2.31 and the “parent fraction in plasma” value [10] is listed as 30 ± 3%. For the same compound, the “effective dose (ED)” value [11] was 15.4 µSv/MBq, the “brain tissue free fraction fND” value (SV2A [6]; calculated from K1/k2 using 2TCM-c) was 6.1% and the VND (SV2A [9]) was 7.89 mL/cm^3.
For lutidine, the pKa exp. [12] is listed as 6.77.
